Columns and labels:
Experiment in all cases: Bacteriostatic effect of Octenidin with BBG: turbidity after 24 h incubation
Format in all cases: cell-based
Set-up in all cases: key: +: Bakterienwachstum nach 24 h Inkubation; -: kein Bakterienwachstum nach 24 h Inkubation
Vibrio sp. Gal12 = tested on: Vibrio sp. Gal12
Protocol: (§1) Zur Untersuchung des Einflusses von BBG auf die bakteriostatische Wirkung wurden Bakterien 24 h mit erfindungsgemäßen Zusammensetzungen, Benzalkoniumchlorid (BAK) und Octenidin (Oct) als Bakteriostatikum enthielten, inkubiert. Wenn sich die Inkubationsmischung trübte, wurde das als Bakterienwachstum interpretiert. Zum Vergleich wurde Brillantblau R (BBR) anstelle von BBG eingesetzt. Die Ergebnisse sind in den Tabellen 1-4 wiedergegeben. Tabelle 1: Einfluss von BBG und BBR auf die bakteriostatische Wirkung von BAK gegenüber Escherichia coli (E. coli), + = Bakterienwachstum nach 24 h Inkubation, - = kein Bakterienwachstum nach 24 h Inkubation, R = Brillantblau R (BBR), G = Brillantblau G (BBG).
Gram-negative Bakterien (hier E. coli) sind widerstandsfähiger als Gram-positive Bakterien (hier Bacillus sp.) und wachsen konzentrationsabhängig. […] Tabelle 3: Einfluss von BBG auf die bakteriostatische Wirkung von Octenidin (Oct) gegenüber Gram-negativen Bakterien., + = Bakterienwachstum nach 24 h Inkubation, - = kein Bakterienwachstum nach 24 h Inkubation, BBG = Brillantblau G.

Bacillus megaterium = tested on: Bacillus megaterium
Protocol: as §1
(§2) Tabelle 4: Einfluss von BBG auf die bakteriostatische Wirkung von Octenidin (Oct) gegenüber Gram-positiven Bakterien., + = Bakterienwachstum nach 24 h Inkubation, - = kein Bakterienwachstum nach 24 h Inkubation, +/- = geringes Wachstum nach 24 h Inkubation, BBG = Brillantblau G.

Bacillus subtilis = tested on: Bacillus subtilis
Protocol: as §1, §2

[1] = tested on: Clavibacter michiganensis
Protocol: as §1, §2

Paenibacillus sp. = tested on: Paenibacillus sp.
Protocol: as §1, §2

What does the source list for `CCOc1ccc(Nc2ccc(C(=C3C=CC(=[N+](CC)Cc4cccc(S(=O)(=O)[O-])c4)C=C3C)c3ccc(N(CC)Cc4cccc(S(=O)(=O)O)c4)cc3C)cc2)cc1` [BBG, Brillantblau G]?
Bakterienwachstum nach 24 h Inkubation (Vibrio sp. Gal12; 0,007% BBG + Octenidin 0,01%): -; Bakterienwachstum nach 24 h Inkubation (Vibrio sp. Gal12; 0,007% BBG + Octenidin 0,002%): +; Bakterienwachstum nach 24 h Inkubation (Vibrio sp. Gal12; 0,007% BBG + Octenidin 0,003%): -; Bakterienwachstum nach 24 h Inkubation (Vibrio sp. Gal12; 0,007% BBG + Octenidin 0,005%): -; Bakterienwachstum nach 24 h Inkubation (Vibrio sp. Gal12; 0,007% BBG + Octenidin 0,007%): -; Bakterienwachstum nach 24 h Inkubation (Vibrio sp. Gal12; 0,007% BBG + Octenidin 0,009%): -; Bakterienwachstum nach 24 h Inkubation (Vibrio sp. Gal12; 0,007% BBG, Octenidin 0%): +; Bakterienwachstum nach 24 h Inkubation (Vibrio sp. Gal12; 0,015% BBG + Octenidin 0,01%): -; Bakterienwachstum nach 24 h Inkubation (Vibrio sp. Gal12; 0,015% BBG + Octenidin 0,002%): +; Bakterienwachstum nach 24 h Inkubation (Vibrio sp. Gal12; 0,015% BBG + Octenidin 0,003%): +; Bakterienwachstum nach 24 h Inkubation (Vibrio sp. Gal12; 0,015% BBG + Octenidin 0,005%): +; Bakterienwachstum nach 24 h Inkubation (Vibrio sp. Gal12; 0,015% BBG + Octenidin 0,007%): -; Bakterienwachstum nach 24 h Inkubation (Vibrio sp. Gal12; 0,015% BBG + Octenidin 0,009%): -; Bakterienwachstum nach 24 h Inkubation (Vibrio sp. Gal12; 0,015% BBG, Octenidin 0%): +; Bakterienwachstum nach 24 h Inkubation (Vibrio sp. Gal12; 0,030% BBG + Octenidin 0,01%): +; Bakterienwachstum nach 24 h Inkubation (Vibrio sp. Gal12; 0,030% BBG + Octenidin 0,002%): +; Bakterienwachstum nach 24 h Inkubation (Vibrio sp. Gal12; 0,030% BBG + Octenidin 0,003%): +; Bakterienwachstum nach 24 h Inkubation (Vibrio sp. Gal12; 0,030% BBG + Octenidin 0,005%): +; Bakterienwachstum nach 24 h Inkubation (Vibrio sp. Gal12; 0,030% BBG + Octenidin 0,007%): +; Bakterienwachstum nach 24 h Inkubation (Vibrio sp. Gal12; 0,030% BBG + Octenidin 0,009%): +; Bakterienwachstum nach 24 h Inkubation (Vibrio sp. Gal12; 0,030% BBG, Octenidin 0%): +; Bakterienwachstum nach 24 h Inkubation (Bacillus megaterium; 0,007% BBG + Octenidin 0,01%): -; Bakterienwachstum nach 24 h Inkubation (Bacillus megaterium; 0,007% BBG + Octenidin 0,002%): -; Bakterienwachstum nach 24 h Inkubation (Bacillus megaterium; 0,007% BBG + Octenidin 0,003%): -; Bakterienwachstum nach 24 h Inkubation (Bacillus megaterium; 0,007% BBG + Octenidin 0,005%): -; Bakterienwachstum nach 24 h Inkubation (Bacillus megaterium; 0,007% BBG + Octenidin 0,007%): -; Bakterienwachstum nach 24 h Inkubation (Bacillus megaterium; 0,007% BBG + Octenidin 0,009%): -; Bakterienwachstum nach 24 h Inkubation (Bacillus megaterium; 0,007% BBG, Octenidin 0%): +; Bakterienwachstum nach 24 h Inkubation (Bacillus megaterium; 0,015% BBG + Octenidin 0,01%): -; Bakterienwachstum nach 24 h Inkubation (Bacillus megaterium; 0,015% BBG + Octenidin 0,002%): +; Bakterienwachstum nach 24 h Inkubation (Bacillus megaterium; 0,015% BBG + Octenidin 0,005%): -; Bakterienwachstum nach 24 h Inkubation (Bacillus megaterium; 0,015% BBG + Octenidin 0,007%): -; Bakterienwachstum nach 24 h Inkubation (Bacillus megaterium; 0,015% BBG + Octenidin 0,009%): -; Bakterienwachstum nach 24 h Inkubation (Bacillus megaterium; 0,015% BBG, Octenidin 0%): +; Bakterienwachstum nach 24 h Inkubation (Bacillus megaterium; 0,030% BBG + Octenidin 0,01%): -; Bakterienwachstum nach 24 h Inkubation (Bacillus megaterium; 0,030% BBG + Octenidin 0,002%): +; Bakterienwachstum nach 24 h Inkubation (Bacillus megaterium; 0,030% BBG + Octenidin 0,003%): +; Bakterienwachstum nach 24 h Inkubation (Bacillus megaterium; 0,030% BBG + Octenidin 0,009%): -; Bakterienwachstum nach 24 h Inkubation (Bacillus megaterium; 0,030% BBG, Octenidin 0%): +; Bakterienwachstum nach 24 h Inkubation (Bacillus subtilis; 0,007% BBG + Octenidin 0,01%): -; Bakterienwachstum nach 24 h Inkubation (Bacillus subtilis; 0,007% BBG + Octenidin 0,002%): +; Bakterienwachstum nach 24 h Inkubation (Bacillus subtilis; 0,007% BBG + Octenidin 0,003%): -; Bakterienwachstum nach 24 h Inkubation (Bacillus subtilis; 0,007% BBG + Octenidin 0,005%): -; Bakterienwachstum nach 24 h Inkubation (Bacillus subtilis; 0,007% BBG + Octenidin 0,007%): -; Bakterienwachstum nach 24 h Inkubation (Bacillus subtilis; 0,007% BBG + Octenidin 0,009%): -; Bakterienwachstum nach 24 h Inkubation (Bacillus subtilis; 0,007% BBG, Octenidin 0%): +; Bakterienwachstum nach 24 h Inkubation (Bacillus subtilis; 0,015% BBG + Octenidin 0,01%): -; Bakterienwachstum nach 24 h Inkubation (Bacillus subtilis; 0,015% BBG + Octenidin 0,002%): +; Bakterienwachstum nach 24 h Inkubation (Bacillus subtilis; 0,015% BBG + Octenidin 0,003%): +; Bakterienwachstum nach 24 h Inkubation (Bacillus subtilis; 0,015% BBG + Octenidin 0,005%): -; Bakterienwachstum nach 24 h Inkubation (Bacillus subtilis; 0,015% BBG + Octenidin 0,007%): -; Bakterienwachstum nach 24 h Inkubation (Bacillus subtilis; 0,015% BBG + Octenidin 0,009%): -; Bakterienwachstum nach 24 h Inkubation (Bacillus subtilis; 0,015% BBG, Octenidin 0%): +; Bakterienwachstum nach 24 h Inkubation (Bacillus subtilis; 0,030% BBG + Octenidin 0,01%): -; Bakterienwachstum nach 24 h Inkubation (Bacillus subtilis; 0,030% BBG + Octenidin 0,002%): +; Bakterienwachstum nach 24 h Inkubation (Bacillus subtilis; 0,030% BBG + Octenidin 0,003%): +; Bakterienwachstum nach 24 h Inkubation (Bacillus subtilis; 0,030% BBG + Octenidin 0,005%): +; Bakterienwachstum nach 24 h Inkubation (Bacillus subtilis; 0,030% BBG + Octenidin 0,007%): +; Bakterienwachstum nach 24 h Inkubation (Bacillus subtilis; 0,030% BBG + Octenidin 0,009%): -; Bakterienwachstum nach 24 h Inkubation (Bacillus subtilis; 0,030% BBG, Octenidin 0%): +; Bakterienwachstum nach 24 h Inkubation ([1]; 0,007% BBG + Octenidin 0,01%): -; Bakterienwachstum nach 24 h Inkubation ([1]; 0,007% BBG + Octenidin 0,002%): +; Bakterienwachstum nach 24 h Inkubation ([1]; 0,007% BBG + Octenidin 0,003%): -; Bakterienwachstum nach 24 h Inkubation ([1]; 0,007% BBG + Octenidin 0,005%): -; Bakterienwachstum nach 24 h Inkubation ([1]; 0,007% BBG + Octenidin 0,007%): -; Bakterienwachstum nach 24 h Inkubation ([1]; 0,007% BBG + Octenidin 0,009%): -; Bakterienwachstum nach 24 h Inkubation ([1]; 0,007% BBG, Octenidin 0%): +; Bakterienwachstum nach 24 h Inkubation ([1]; 0,015% BBG + Octenidin 0,01%): -; Bakterienwachstum nach 24 h Inkubation ([1]; 0,015% BBG + Octenidin 0,002%): +; Bakterienwachstum nach 24 h Inkubation ([1]; 0,015% BBG + Octenidin 0,003%): +; Bakterienwachstum nach 24 h Inkubation ([1]; 0,015% BBG + Octenidin 0,005%): -; Bakterienwachstum nach 24 h Inkubation ([1]; 0,015% BBG + Octenidin 0,007%): -; Bakterienwachstum nach 24 h Inkubation ([1]; 0,015% BBG + Octenidin 0,009%): -; Bakterienwachstum nach 24 h Inkubation ([1]; 0,015% BBG, Octenidin 0%): +; Bakterienwachstum nach 24 h Inkubation ([1]; 0,030% BBG + Octenidin 0,01%): -; Bakterienwachstum nach 24 h Inkubation ([1]; 0,030% BBG + Octenidin 0,002%): +; Bakterienwachstum nach 24 h Inkubation ([1]; 0,030% BBG + Octenidin 0,003%): +; Bakterienwachstum nach 24 h Inkubation ([1]; 0,030% BBG + Octenidin 0,005%): +; Bakterienwachstum nach 24 h Inkubation ([1]; 0,030% BBG + Octenidin 0,007%): +; Bakterienwachstum nach 24 h Inkubation ([1]; 0,030% BBG + Octenidin 0,009%): -; Bakterienwachstum nach 24 h Inkubation ([1]; 0,030% BBG, Octenidin 0%): +; Bakterienwachstum nach 24 h Inkubation (Paenibacillus sp.; 0,007% BBG + Octenidin 0,01%): -; Bakterienwachstum nach 24 h Inkubation (Paenibacillus sp.; 0,007% BBG + Octenidin 0,002%): -; Bakterienwachstum nach 24 h Inkubation (Paenibacillus sp.; 0,007% BBG + Octenidin 0,003%): -; Bakterienwachstum nach 24 h Inkubation (Paenibacillus sp.; 0,007% BBG + Octenidin 0,005%): -; Bakterienwachstum nach 24 h Inkubation (Paenibacillus sp.; 0,007% BBG + Octenidin 0,007%): -; Bakterienwachstum nach 24 h Inkubation (Paenibacillus sp.; 0,007% BBG + Octenidin 0,009%): -; Bakterienwachstum nach 24 h Inkubation (Paenibacillus sp.; 0,007% BBG, Octenidin 0%): +; Bakterienwachstum nach 24 h Inkubation (Paenibacillus sp.; 0,015% BBG + Octenidin 0,01%): -; Bakterienwachstum nach 24 h Inkubation (Paenibacillus sp.; 0,015% BBG + Octenidin 0,002%): +; Bakterienwachstum nach 24 h Inkubation (Paenibacillus sp.; 0,015% BBG + Octenidin 0,003%): +; Bakterienwachstum nach 24 h Inkubation (Paenibacillus sp.; 0,015% BBG + Octenidin 0,005%): -; Bakterienwachstum nach 24 h Inkubation (Paenibacillus sp.; 0,015% BBG + Octenidin 0,007%): -; Bakterienwachstum nach 24 h Inkubation (Paenibacillus sp.; 0,015% BBG + Octenidin 0,009%): -; Bakterienwachstum nach 24 h Inkubation (Paenibacillus sp.; 0,015% BBG, Octenidin 0%): +; Bakterienwachstum nach 24 h Inkubation (Paenibacillus sp.; 0,030% BBG + Octenidin 0,01%): -; Bakterienwachstum nach 24 h Inkubation (Paenibacillus sp.; 0,030% BBG + Octenidin 0,002%): +; Bakterienwachstum nach 24 h Inkubation (Paenibacillus sp.; 0,030% BBG + Octenidin 0,003%): +; Bakterienwachstum nach 24 h Inkubation (Paenibacillus sp.; 0,030% BBG + Octenidin 0,005%): +; Bakterienwachstum nach 24 h Inkubation (Paenibacillus sp.; 0,030% BBG + Octenidin 0,007%): +; Bakterienwachstum nach 24 h Inkubation (Paenibacillus sp.; 0,030% BBG + Octenidin 0,009%): +; Bakterienwachstum nach 24 h Inkubation (Paenibacillus sp.; 0,030% BBG, Octenidin 0%): +

— EP3041353B1, “COMPOSITIONS COMPRISING BACTERIOSTATIC AGENTS AND BRILLIANT BLUE G” (priority 2013, dated 2015)
